Measurements: PMC7023430, “4-Aminobenzoic Acid Derivatives: Converting Folate Precursor to Antimicrobial and Cytotoxic Agents” (Biomolecules, 2019)
In brackets after ≈: the same amount, converted by molar mass. Read-outs that look alike come from different tables or passages of the source.

Assays:
[1] = test system: Candida tropicalis 156; assay: Antifungal microdilution broth method, C. tropicalis; type: cell-based
Summary of the method: (§1)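 Panel covers five yeasts and three filamentous fungi tested by a slightly modified EUCAST microdilution protocol. Growth medium is glucose-supplemented (2%) RPMI-1640 with L-glutamine at pH 7.0 (MOPS). Endpoints are judged visually from duplicate runs.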

[2] = test system: Staphylococcus aureus ATCC 29213, CCM 4223; assay: Antibacterial microdilution broth method, S. aureus; type: cell-based
[3] = test system: Candida krusei E28; assay: Antifungal microdilution broth method, C. krusei; type: cell-based; settings: Pichia kudriavzevii
Summary of the method: as §1

[4] = test system: HepG2 cells; assay: Cytotoxicity, CellTiter 96 assay; type: cell-based, human; settings: Homo sapiens, HepG2, 24 h, 24 h incubation
Method: HepG2, human hepatocellular carcinoma cells (ATCC HB-8065; passage 5–8) purchased from Health Protection Agency Culture Collections (ECACC, Salisbury, UK) were cultured in Minimum Essentials Eagle Medium supplemented with 10% fetal bovine serum, 1% L-glutamine solution and non-essential amino acid solution (Sigma-Aldrich, St. Louis, MO, USA) in a humidified atmosphere containing 5% CO2 at 37 °C. For subculturing, the cells were harvested after trypsin/EDTA (Sigma-Aldrich, St. Louis, USA) treatment at 37 °C. To evaluate cytotoxicity, the cells treated with the tested substances were used as experimental groups whereas untreated HepG2 cells served as control groups.
The cells were seeded in a density of 10 000 cells per well in a 96-well plate. The following day the cells were treated with each of the tested substances dissolved in DMSO (maximal incubation concentration of DMSO was 1% v/v). The tested substances were prepared at different incubation concentrations in triplicates according to their solubility. Simultaneously, the controls representing 100% cell viability, 0% cell viability (the cells treated with 10% DMSO), no cell control and vehiculum controls were also involved in triplicates. After 24 h incubation in a humidified atmosphere containing 5% CO2 at 37 °C, the reagent from the kit CellTiter 96 AQueous One Solution Cell Proliferation Assay (CellTiter 96; Promega, Fitchburg, WI, USA) was added. After 2 h incubation at 37 °C absorbance of samples was recorded at 490 nm (TECAN, Infinita M200, Grödig, Austria). A standard toxicological parameter IC50 was calculated by nonlinear regression from a semilogarithmic plot of incubation concentration versus percentage of absorbance relative to untreated controls using GraphPad Prism software (version 6; GraphPad Software, Inc., La Jolla, CA, USA).
The CellTiter 96 assay used is based on the reduction of tetrazolium dye in living cells to formazan, which is then determined colorimetrically. This reduction is related to availability of NADH or NADPH. The decline in levels of these metabolically important compounds in the cell causes that the production of formazan is reduced. For quantitative comparison of cytotoxicity, the parameter IC50 was used.

[5] = test system: Mycobacterium kansasii 235/80; assay: Antimycobacterial micromethod in Šula's medium, M. kansasii 235/80; type: cell-based
[6] = test system: Staphylococcus epidermidis H 6966/08; assay: Antibacterial microdilution broth method, S. epidermidis; type: cell-based; settings: Staphylococcus epidermidis, H6966/08, S. epidermidis
[7] = test system: Candida glabrata 20/I; assay: Antifungal microdilution broth method, C. glabrata; type: cell-based; settings: Nakaseomyces glabratus
Summary of the method: as §1

[8] = test system: Aspergillus fumigatus 231; assay: Antifungal microdilution broth method, A. fumigatus; type: cell-based
Summary of the method: as §1

[9] = test system: Candida albicans ATCC 44859; assay: Antifungal microdilution broth method, C. albicans; type: cell-based
Summary of the method: as §1

[10] = test system: M. kansasii 6509/96 (clinical isolate); assay: Antimycobacterial micromethod in Šula's medium, M. kansasii 6509/96; type: cell-based; settings: Mycobacterium kansasii
[11] = test system: Lichtheimia corymbifera 272; assay: Antifungal microdilution broth method, L. corymbifera; type: cell-based
Summary of the method: as §1

[12] = test system: Klebsiella pneumoniae D 11750/08; assay: Antibacterial microdilution broth method, K. pneumoniae; settings: K. pneumoniae D 11750/08; for MIC KP 24 h: 24 h incubation; for MIC KP 48 h: 48 h incubation
[13] = test system: ESBL-positive Klebsiella pneumoniae J 14368/08
[14] = test system: Trichophyton interdigitale 445; assay: Antifungal microdilution broth method, T. interdigitale; type: cell-based
Summary of the method: as §1

[15] = test system: methicillin-resistant Staphylococcus aureus ATCC 43300, CCM 4750 (MRSA); assay: Antibacterial microdilution broth method, MRSA; type: cell-based; settings: Staphylococcus aureus
[16] = test system: Pseudomonas aeruginosa ATCC 27853, CCM 3955; assay: Antibacterial microdilution broth method, P. aeruginosa; type: cell-based; settings: Pseudomonas aeruginosa, P. aeruginosa
[17] = 24 h incubation, read-out: MIC SA 24 h
[18] = 48 h incubation, read-out: MIC SA 48 h
[19] = 235/80, 168 h, 7 days incubation at 37 °C, read-out: MIC M. kansasii 235/80 7 d
[20] = 235/80, 336 h, 14 days incubation at 37 °C, read-out: MIC M. kansasii 235/80 14 d
[21] = 235/80, 504 h, 21 days incubation at 37 °C, read-out: MIC M. kansasii 235/80 21 d
[22] = 24 h incubation, read-out: MIC SE 24 h
[23] = 48 h incubation, read-out: MIC SE 48 h
[24] = ATCC44859, 24 h, read-out: MIC CA 24 h
[25] = ATCC44859, 48 h, read-out: MIC CA 48 h
[26] = 168 h, 7 days incubation at 37 °C, read-out: MIC M. kansasii 6509/96 7 d
[27] = 336 h, 14 days incubation at 37 °C, read-out: MIC M. kansasii 6509/96 14 d
[28] = 504 h, 21 days incubation at 37 °C, read-out: MIC M. kansasii 6509/96 21 d
[29] = 24 h incubation, read-out: MIC MRSA 24 h
[30] = 48 h incubation, read-out: MIC MRSA 48 h
[31] = 24 h incubation, read-out: MIC PA 24 h
[32] = 48 h incubation, read-out: MIC PA 48 h

O=C(O)c1ccc(N=Cc2cc(F)ccc2O)cc1 [1b, 4-[(5-Fluoro-2-hydroxybenzylidene)amino]benzoic acid]
MIC ([1]; 24 h, read-out: MIC CT 24 h): > 500 µM
MIC ([1]; 48 h, read-out: MIC CT 48 h): > 500 µM
MIC [2, 17]: > 500 µM
MIC [2, 18]: > 500 µM
MIC ([3]; 24 h, read-out: MIC CK 24 h): > 500 µM
MIC ([3]; 48 h, read-out: MIC CK 48 h): > 500 µM
IC50 [4]: 498 µM
MIC [5, 19]: 250 µM (≈ 64.8 µg/mL)
MIC [5, 20]: 500 µM (≈ 130 µg/mL)
MIC [5, 21]: 500 µM (≈ 130 µg/mL)
MIC [6, 22]: > 500 µM
MIC [6, 23]: > 500 µM
MIC ([7]; 24 h, read-out: MIC CG 24 h): > 500 µM
MIC ([7]; 48 h, read-out: MIC CG 48 h): > 500 µM
MIC ([8]; 24 h, read-out: MIC AF 24 h): > 500 µM
MIC ([8]; 48 h, read-out: MIC AF 48 h): > 500 µM
MIC [9, 24]: > 500 µM
MIC [9, 25]: > 500 µM
MIC [10, 26]: 500 µM (≈ 130 µg/mL)
MIC [10, 27]: 500 µM (≈ 130 µg/mL)
MIC [10, 28]: 500 µM (≈ 130 µg/mL)
MIC ([11]; 24 h, read-out: MIC LC 24 h): > 500 µM
MIC ([11]; 48 h, read-out: MIC LC 48 h): > 500 µM
MIC KP 24 h [12]: >500 µM
MIC KP 48 h [12]: >500 µM
MIC KP-E 24 h [13]: >500 µM
MIC KP-E 48 h [13]: >500 µM
MIC ([14]; 72 h, read-out: MIC TI 72 h): > 500 µM
MIC ([14]; 120 h, read-out: MIC TI 120 h): > 500 µM
MIC [15, 29]: > 500 µM
MIC [15, 30]: > 500 µM
MIC [16, 31]: > 500 µM
MIC [16, 32]: > 500 µM

O=C(O)c1ccc(N=Cc2cc(Cl)ccc2O)cc1 [1c, 4-[(5-Chloro-2-hydroxybenzylidene)amino]benzoic acid]
MIC ([1]; 24 h, read-out: MIC CT 24 h): 125 µM (≈ 34.5 µg/mL)
MIC ([1]; 48 h, read-out: MIC CT 48 h): 125 µM (≈ 34.5 µg/mL)
MIC [2, 17]: > 500 µM
MIC [2, 18]: > 500 µM
MIC ([3]; 24 h, read-out: MIC CK 24 h): 125 µM (≈ 34.5 µg/mL)
MIC ([3]; 48 h, read-out: MIC CK 48 h): 125 µM (≈ 34.5 µg/mL)
IC50 [4]: 143 µM
MIC [5, 19]: 250 µM (≈ 68.9 µg/mL)
MIC [5, 20]: 250 µM (≈ 68.9 µg/mL)
MIC [5, 21]: 500 µM (≈ 138 µg/mL)
MIC [6, 22]: 62.5 µM (≈ 17.2 µg/mL)
MIC [6, 23]: 62.5 µM (≈ 17.2 µg/mL)
MIC ([7]; 24 h, read-out: MIC CG 24 h): 125 µM (≈ 34.5 µg/mL)
MIC ([7]; 48 h, read-out: MIC CG 48 h): 125 µM (≈ 34.5 µg/mL)
MIC ([8]; 24 h, read-out: MIC AF 24 h): > 125 µM
MIC ([8]; 48 h, read-out: MIC AF 48 h): > 125 µM
MIC [9, 24]: > 125 µM
MIC [9, 25]: > 125 µM
MIC [10, 26]: 500 µM (≈ 138 µg/mL)
MIC [10, 27]: 500 µM (≈ 138 µg/mL)
MIC [10, 28]: 1000 µM (≈ 276 µg/mL)
MIC ([11]; 24 h, read-out: MIC LC 24 h): > 125 µM
MIC ([11]; 48 h, read-out: MIC LC 48 h): > 125 µM
MIC KP 24 h [12]: >500 µM
MIC KP 48 h [12]: >500 µM
MIC KP-E 24 h [13]: >500 µM
MIC KP-E 48 h [13]: >500 µM
MIC ([14]; 72 h, read-out: MIC TI 72 h): 125 µM (≈ 34.5 µg/mL)
MIC ([14]; 120 h, read-out: MIC TI 120 h): 125 µM (≈ 34.5 µg/mL)
MIC [15, 29]: > 500 µM
MIC [15, 30]: > 500 µM
MIC [16, 31]: > 500 µM
MIC [16, 32]: > 500 µM
